Ten molecules from ChEMBL document CHEMBL4406877, “Synthesis of 2-arylhydrazinylidene-3-oxo-4,4,4-trifluorobutanoic acids as new selective carboxylesterase inhibitors and radical scavengers” (Bioorg Med Chem Lett, 2019) can be followed below.

The inhibition is the percentage by which the read-out fell short of the control. What is called IC50 is the concentration at which inhibition is half-maximal. The term Ki denotes the dissociation constant of the complex between target and ligand, obtained from inhibition or displacement.

The source made the active and inactive calls. No cut-off for these calls is given here.

Series [1] is described as follows: Potency index, ratio of trolox IC50 to test compound IC50 for antioxidant activity assessed as decrease in ABTS radical cation scavenging activity. The format is functional.
The nature of series [2]: Potency index, ratio of ascorbic acid IC50 to test compound IC50 for antioxidant activity assessed as decrease in ABTS radical cation scavenging activity. It counts as functional.
The target in series [3] is Acetylcholinesterase (Homo sapiens) (UniProt P22303). Description: Inhibition of human erythrocyte AChE at 20 uM using acetylthiocholine iodide as substrate preincubated for 10 mins followed by substrate addition by Ellman's method relative to control. A general note: DTNB colorimetry detects thiols as they appear.
Acetylcholinesterase (Homo sapiens), sequence (P22303 whole entry): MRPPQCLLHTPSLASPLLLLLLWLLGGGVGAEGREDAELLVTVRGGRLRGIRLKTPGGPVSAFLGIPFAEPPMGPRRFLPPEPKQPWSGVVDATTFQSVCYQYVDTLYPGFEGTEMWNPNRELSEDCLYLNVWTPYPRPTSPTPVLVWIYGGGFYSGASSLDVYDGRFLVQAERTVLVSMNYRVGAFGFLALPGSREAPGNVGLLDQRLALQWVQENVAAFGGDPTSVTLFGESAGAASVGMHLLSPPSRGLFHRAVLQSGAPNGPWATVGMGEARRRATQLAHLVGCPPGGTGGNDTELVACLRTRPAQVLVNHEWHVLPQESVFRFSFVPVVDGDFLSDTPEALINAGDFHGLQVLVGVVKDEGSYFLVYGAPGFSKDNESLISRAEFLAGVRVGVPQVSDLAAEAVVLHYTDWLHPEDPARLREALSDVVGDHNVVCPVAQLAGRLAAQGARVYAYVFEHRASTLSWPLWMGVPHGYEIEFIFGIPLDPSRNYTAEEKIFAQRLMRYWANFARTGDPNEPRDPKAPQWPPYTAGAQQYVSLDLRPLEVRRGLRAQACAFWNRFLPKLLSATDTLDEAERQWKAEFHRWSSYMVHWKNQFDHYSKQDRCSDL
The target of series [4] is T1, Liver carboxylesterase (Sus scrofa, UniProt Q29550).
T1 sequence (Q29550 whole entry): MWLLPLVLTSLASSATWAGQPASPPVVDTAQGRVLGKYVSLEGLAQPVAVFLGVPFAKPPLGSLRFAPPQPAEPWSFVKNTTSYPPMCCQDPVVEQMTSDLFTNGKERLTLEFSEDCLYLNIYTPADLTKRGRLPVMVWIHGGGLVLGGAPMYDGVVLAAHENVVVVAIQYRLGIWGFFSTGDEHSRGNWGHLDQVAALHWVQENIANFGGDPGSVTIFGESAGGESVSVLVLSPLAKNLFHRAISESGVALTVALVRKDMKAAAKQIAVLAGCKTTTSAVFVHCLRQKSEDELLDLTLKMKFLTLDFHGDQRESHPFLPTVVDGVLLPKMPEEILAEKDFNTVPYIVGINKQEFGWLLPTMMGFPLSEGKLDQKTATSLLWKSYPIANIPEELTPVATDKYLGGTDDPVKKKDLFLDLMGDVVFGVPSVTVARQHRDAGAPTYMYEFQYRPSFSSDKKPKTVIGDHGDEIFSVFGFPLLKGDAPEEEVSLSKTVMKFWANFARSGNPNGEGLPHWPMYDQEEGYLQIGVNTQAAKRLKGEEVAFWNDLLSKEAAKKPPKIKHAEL
Description: Inhibition of porcine liver carboxylesterase using 4-NPA as substrate preincubated for 10 mins followed by substrate addition by spectrophotometric analysis.

Series [5] deals with T1, Liver carboxylesterase. Description: Competitive inhibition of porcine liver carboxylesterase by double reciprocal Lineweaver-Burk plot analysis.
Series [6] in a line: Antioxidant activity assessed as decrease in ABTS radical cation scavenging activity every 1 min for 6 mins by UV-Vis spectrophotometric analysis. The format is functional.
Series [7] concerns the target Cholinesterase (Equus caballus) (UniProt P81908). Description: Inhibition of equine serum BuChE at 20 uM using […] as substrate preincubated for 10 mins followed by substrate addition by Ellman's method relative to control.
Series [8] deals with T1, Liver carboxylesterase. The series can be described thus: Non-competitive inhibition of porcine liver carboxylesterase by double reciprocal Lineweaver-Burk plot analysis. The conditions noted are these: pig.
Series [9] in a line: Antioxidant activity assessed as decrease in ABTS radical cation scavenging activity after 1 min by UV-Vis spectrophotometric analysis relative to control. It counts as functional. The arrangement: scale not given: the % may be the effect or the level left.
The target in series [10] is T1, Liver carboxylesterase. Description: Inhibition of porcine liver carboxylesterase at 20 uM using 4-NPA as substrate preincubated for 10 mins followed by substrate addition by spectrophotometric analysis relative to control. The conditions noted are these: pig.

Cholinesterase (Equus caballus), sequence (P81908 whole entry): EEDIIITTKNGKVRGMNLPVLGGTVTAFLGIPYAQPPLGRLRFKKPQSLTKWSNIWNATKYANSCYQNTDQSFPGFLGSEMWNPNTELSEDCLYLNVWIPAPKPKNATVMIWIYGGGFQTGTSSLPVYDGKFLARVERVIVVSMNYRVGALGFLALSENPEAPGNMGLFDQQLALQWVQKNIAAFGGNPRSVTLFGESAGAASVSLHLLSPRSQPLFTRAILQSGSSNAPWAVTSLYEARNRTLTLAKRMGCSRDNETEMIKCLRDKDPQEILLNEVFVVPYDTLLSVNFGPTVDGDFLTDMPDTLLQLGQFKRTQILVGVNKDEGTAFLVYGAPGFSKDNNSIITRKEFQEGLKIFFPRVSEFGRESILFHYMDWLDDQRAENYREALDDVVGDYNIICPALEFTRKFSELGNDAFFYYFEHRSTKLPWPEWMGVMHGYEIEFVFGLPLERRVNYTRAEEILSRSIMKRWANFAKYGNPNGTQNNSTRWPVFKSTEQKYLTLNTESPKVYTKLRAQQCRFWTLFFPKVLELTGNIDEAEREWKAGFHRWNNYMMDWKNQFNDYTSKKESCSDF

For the molecule `Cc1ccc(N/N=C(\C(=O)O)C(=O)C(F)(F)F)cc1`, the Ratio IC50 in [1] was found to be 1.69; in series [2] it was 2. In addition, in series [3], the inhibition result is “inactive”. Besides, the IC50 against Liver carboxylesterase [4] worked out at 0.63 µM; in series [6], 12.1 µM. The same molecule yielded a Ki on Liver carboxylesterase [5] of 0.337 µM. This molecule also came in with an inhibition in series [7] of 18.1%. On Liver carboxylesterase [8], this molecule yielded an alphaKi of 1.11 µM.

On to `CCOC(=O)c1ccc(N/N=C(\C(=O)O)C(=O)C(F)(F)F)cc1`, for which the Ratio IC50 in series [1] came out at 0.25. Also, the results for the inhibition in series [3] and in series [7] were 8.1% and 3.4%, respectively. In addition, the IC50 against Liver carboxylesterase [4] amounted to 0.324 µM; in [6], 96.4 µM.

In the case of `CCOC(=O)c1ccccc1N/N=C(\C(=O)O)C(=O)C(F)(F)F`, the Ratio IC50 in series [1] was determined as 0.01. The inhibition is 16.5% in series [3] and 8.7% in [7]. At Liver carboxylesterase [4], this molecule gave an IC50 of 0.0696 µM.

In the case of `Cc1c(C)c2c(c(C)c1O)CCC(C)(C(=O)O)O2` (stereo not drawn) [TROLOX], the IC50 in series [6] was found to be 20.4 µM.

As for `COc1ccc(N/N=C(\C(=O)O)C(=O)C(F)(F)F)cc1`, the Ratio IC50 came to 1.9 in [1] and 2 in series [2]. Moreover, in series [3], the inhibition result was “inactive”. The values for the IC50 (against Liver carboxylesterase [4]; in series [6]) were 2.62 µM and 11 µM, respectively. The molecule further returned an inhibition in series [7] of 17.3%. Also, in series [9], the Activity was 75%.

For `O=C1O[C@H]([C@@H](O)CO)C(O)=C1O` [ASCORBIC ACID], in [1], the Ratio IC50 turned out to be 0.98. In series [6], the IC50 was 21.4 µM.

`O=[N+]([O-])c1ccc(OP(=O)(O)Oc2ccc([N+](=O)[O-])cc2)cc1`: the inhibition entry in [3] and in series [7] was “inactive” in each case.

Regarding `CC(=O)/C(=N/Nc1ccc(C)cc1)C(=O)O`, in series [1], the Ratio IC50 came out at 1.65. Further, the inhibition at 20 µM on Liver carboxylesterase [10] (porcine liver carboxylesterase, probe 4-NPA) is 9.3%. Besides, the inhibition entry in series [3] and in series [7] was “inactive” throughout. Also, the IC50 in [6] turned out to be 12.8 µM.

`COc1ccc(N/N=C(/C(C)=O)C(=O)O)cc1`: the Ratio IC50 in [1] is 1.9. Further, the “inhibition (INH)” value against Liver carboxylesterase [10] (20 µM) is reported as “Not Active”. The inhibition result in series [3] is “inactive”. Moreover, the IC50 in series [6] was 9.7 µM. For the same molecule, in series [7], the inhibition was 5.4%.

In the case of `O=C(O)/C(=N\Nc1ccc([N+](=O)[O-])cc1)C(=O)C(F)(F)F`, in series [1], the Ratio IC50 amounted to 0.05. The inhibition is 6.1% in series [3] and 17.3% in [7]. Half-maximal inhibition against Liver carboxylesterase [4] (IC50) was put at 2.76 µM.
